Results on 2 compounds are retold here after patent publication US20250177275A1, “ACTIVE AGENT MODULATING THE ACTIVITY OF AN ION CHANNEL FOR USE IN INHIBITION OF SKIN AGING” (Cutaneon - Skin & Hair Innovations GmbH, priority 2022, published 2025).

Entries after “also recorded” stand apart in the source; their conditions may differ.

Assay [1] relates to Collagen 17A. The assay is described as follows: Collagen 17A immunofluorescence, quantitative immunohistomorphometry in ex vivo human skin organ culture. In kind it is cell-based. The note with it: 3 days. The method, then: Samples of human abdominal, breast, temporal, and occipital skin were obtained with written patient consent and under ethical approval from healthy adult human subjects during elective plastic surgery performed for cosmetic reasons. Full-thickness human skin samples were prepared as 4-6 mm punches, placed on filter paper, and cultured at the air-liquid interphase under serum-free conditions in William's E medium supplemented only with penicillin-streptomycin, insulin, hydrocortisone and L-glutamine, as described previously.
For modelling the application of the actives directly to the skin surface (topical application) 2,5-dimethylpyrazine (DMP), a TRPM5 activator was dissolved at 37° C. at a final concentration of 12.5 mM in a 50% v/v solution of Isopropanol in PBS containing 1 g/mL of Polyethylene glycol 6000. […]
(§1) Images were then obtained with a digital microscope (Keyence). Quantitative immunohistomorphometric analysis was performed by assessing the relative fluorescent or color intensity in standardized reference areas with ImageJ (NIH; Bethesda, MD, USA). […] Two skin punch biopsies were analyzed per experimental group unless indicated otherwise. […]

The subject of assay [2] is Collagen 17A. The assay is described as follows: Collagen 17A immunofluorescence in normal human epidermal keratinocyte (NHEK) culture. In kind it is cell-based. The following applies: 24 hrs; for expression of Collagen 17A in NHEKs: vs vehicle. The method, then:
(§2) Primary adult normal human epidermal keratinocytes (NHEK) were cultured in serum-free Keratinocyte Growth Medium 2 (KGM2) up to passage 6 and were seeded on glass slides at a density of 15-20×10^3 cells/cm^2. The next day, the KGM2 culture medium was changed and supplemented with hereafter indicated compounds, their combination or ethanol as vehicle control.
(§3) For application of the active to the medium (systemic application), 2,5-dimethylpyrazine (DMP), a TRPM5 activator, the DMP stock was dissolved at 37° C. at a final concentration of 10, 12.5 or 100 nM in KGM2. For triphenylphosphine oxide (TPPO), a TRPM5 inhibitor, a stock was prepared in ethanol and dissolved at 37° C. at a final concentration of 50 μM in KGM2. After 24 hours, NHEKs were washed in PBS and then either fixed in 4% formaldehyde for 10 minutes are room temperature (immunofluorescence labeling) or lysed in Buffer RLT containing 1% β-mercaptoethanol (for quantitative RT-qPCR).
For the detection of Collagen 17A in cell cultures, formalin-fixed NHEKs were permeabilized in PBS containing 0.05% Triton™ X-100 for 10 minutes, rinsed in PBS and then blocked in PBS containing 10% normal goat serum (NGS) for 20 minutes. Next, samples were incubated with an anti-Collagen 17A diluted 1:100 in antibody diluent overnight at 4° C. After consecutive rinses with PBS, samples were incubated with Alexa fluorophore-conjugated secondary antibodies diluted 1:500 in antibody diluent containing 2% NGS for 45 minutes at room temperature. […]
For the analysis on NHEKs, images were then obtained with a digital microscope (Keyence). Quantitative immunohistomorphometric analysis was performed by assessing the number of positive cells or the relative fluorescence intensity in standardized reference areas with ImageJ (NIH; Bethesda, MD, USA). Briefly, for the evaluation of Collagen 17A, the relative target-specific intensity was measured in 14-20 cells per microscopic field. For each parameter 14-20 microscopic fields were evaluated.

Assay [3] concerns Cytokeratin 15. The assay is described as follows: Cytokeratin 15 immunofluorescence in normal human epidermal keratinocyte (NHEK) culture. The note with it: 24 hrs; for expression of Cytokeratin 15 in NHEKs: vs vehicle. In kind it is cell-based. The protocol: as §2, §3
For the detection of Cytokeratin 15 in cell cultures, formalin-fixed NHEKs were permeabilized in PBS containing 0.05% Triton™ X-100 for 10 minutes, rinsed in PBS and then blocked in PBS containing 10% normal goat serum (NGS) for 20 minutes. Next, samples were incubated with an anti-Cytokeratin 15 diluted 1:100 in antibody diluent overnight at 4° C. After consecutive rinses with PBS, samples were incubated with Alexa fluorophore-conjugated secondary antibodies diluted 1:500 in antibody diluent containing 2% NGS for 45 minutes at room temperature. […]
For the analysis on NHEKs, images were then obtained with a digital microscope (Keyence). Quantitative immunohistomorphometric analysis was performed by assessing the number of positive cells or the relative fluorescence intensity in standardized reference areas with ImageJ (NIH; Bethesda, MD, USA). Briefly, for the evaluation of Cytokeratin 15, the relative target-specific intensity was measured in 14-20 cells per microscopic field. For each parameter 14-20 microscopic fields were evaluated.

For assay [4], the system named is Ki67. The assay is described as follows: Ki67 immunofluorescence, quantitative immunohistomorphometry in ex vivo human skin organ culture. The note with it: 3 days. In kind it is cell-based. The method, then: (§4) Samples of human abdominal, breast, temporal, and occipital skin were obtained with written patient consent and under ethical approval from healthy adult human subjects during elective plastic surgery performed for cosmetic reasons. Full-thickness human skin samples were prepared as 4-6 mm punches, placed on filter paper, and cultured at the air-liquid interphase under serum-free conditions in William's E medium supplemented only with penicillin-streptomycin, insulin, hydrocortisone and L-glutamine, as described previously. […]
as §1
For the detection of Ki67, formalin-fixed human skin frozen sections were blocked with PBS containing 10% normal goat serum (NGS) for 30 minutes at room temperature and then incubated with an anti-Ki67 antibody diluted 1:800 in PBS containing 2% NGS overnight at 4° C. […] Image acquisition and quantitative immunohistomorphometric analysis were performed similar to as described above.

For another assay, the system named is PGC1α. The assay is described as follows: PGC1α immunofluorescence, quantitative immunohistomorphometry in ex vivo human skin organ culture. The class given is cell-based. The following applies: systemic (medium) DMP 12.5 μM, 3 days, vs vehicle.
Another assay deals with KRT15. The assay is described as follows: KRT15 mRNA by RT-qPCR in NHEK culture. The class given is cell-based, human. The note with it: DMP 100 nM, 24 hrs, normalized to GAPDH, vs vehicle. The protocol:
as §2
(§5) For application of the active to the medium (systemic application), 2,5-dimethylpyrazine (DMP), a TRPM5 activator, the DMP stock was dissolved at 37° C. at a final concentration of 10, 12.5 or 100 nM in KGM2. […] After 24 hours, NHEKs were washed in PBS and then either fixed in 4% formaldehyde for 10 minutes are room temperature (immunofluorescence labeling) or lysed in Buffer RLT containing 1% β-mercaptoethanol (for quantitative RT-qPCR).
(§6) For the assessment of Collagen 17A and Cytokeratin 15 specific mRNA transcripts (COL17A, KRT15) by quantitative RT-qPCR technology, RNA was isolated from cells lysed in Buffer RLT containing 1% β-mercaptoethanol using the RNeasy Mini Kit according to the manufacturer's instructions. RNA purity and concentrations were determined using the BioDrop. […] Real-time quantitative polymerase chain reaction (qRT-PCR) was run in triplicate using TaqMan™ Fast Advanced Master Mix and TaqMan Gene Expression Assays on the QuantStudio. […]
For orientation: Real-time PCR tracks product formation cycle by cycle.

The subject of a further assay is COL17A1. The assay is described as follows: COL17A1 mRNA by RT-qPCR in NHEK culture. The class given is cell-based, human. The following applies: DMP 10 nM, 24 hrs, normalized to GAPDH, vs vehicle. The protocol: as §2, §5, §6
In another assay the test system is Sirtuin-1. The assay is described as follows: Sirtuin-1 immunohistochemistry, quantitative immunohistomorphometry in ex vivo human skin organ culture. The class given is cell-based. The following applies: systemic (medium) DMP 12.5 μM, 3 days, vs vehicle.
Assay [5] relates to Cytokeratin 15. The assay is described as follows: Cytokeratin 15 immunofluorescence, quantitative immunohistomorphometry in ex vivo human skin organ culture. The class given is cell-based. The following applies: topical DMP 12.5 mM, 3 days, vs vehicle. The protocol: as §4, §1
After consecutive rinses with PBS, samples were incubated with Alexa fluorophore-conjugated secondary antibodies diluted 1:500 in antibody diluent containing 2% normal goat serum for 45 minutes at room temperature. […] Image acquisition and quantitative immunohistomorphometric analysis were performed similar to as described above.

For assay [6], the system named is Phospho-Histone H3 Ser10 (pH3S10). The assay is described as follows: Phospho-Histone H3 Ser10 (pH3S10) positive cell count in NHEK culture. The class given is cell-based, human. The following applies: DMP 100 nM, 24 hrs, vs vehicle. The protocol: as §2
(§7) For application of the active to the medium (systemic application), 2,5-dimethylpyrazine (DMP), a TRPM5 activator, the DMP stock was dissolved at 37° C. at a final concentration of 10, 12.5 or 100 nM in KGM2. […] After 24 hours, NHEKs were washed in PBS and then either fixed in 4% formaldehyde for 10 minutes are room temperature (immunofluorescence labeling) or lysed in Buffer RLT containing 1% β-mercaptoethanol (for quantitative RT-qPCR). […]
For the analysis on NHEKs, images were then obtained with a digital microscope (Keyence). Quantitative immunohistomorphometric analysis was performed by assessing the number of positive cells or the relative fluorescence intensity in standardized reference areas with ImageJ (NIH; Bethesda, MD, USA). Briefly, for the evaluation of pH3S10, the number of cells with positive nuclear staining per field was counted and normalized to the total number of DAPI positive nuclei. For each parameter 14-20 microscopic fields were evaluated.

A further assay relates to Lamin B1. The assay is described as follows: Lamin B1 immunofluorescence, quantitative immunohistomorphometry in ex vivo human skin organ culture. In kind it is cell-based. The following applies: systemic (medium) DMP 12.5 μM, 3 days, vs vehicle.
The test system of assay [7] is Ki67. The assay is described as follows: Ki67 positive cell count (proliferation) in NHEK culture. The class given is cell-based, human. The following applies: DMP 100 nM, 24 hrs, vs vehicle. The protocol: as §2, §7
For the analysis on NHEKs, images were then obtained with a digital microscope (Keyence). Quantitative immunohistomorphometric analysis was performed by assessing the number of positive cells or the relative fluorescence intensity in standardized reference areas with ImageJ (NIH; Bethesda, MD, USA). Briefly, for the evaluation of Ki67, the number of cells with positive nuclear staining per field was counted and normalized to the total number of DAPI positive nuclei. For each parameter 14-20 microscopic fields were evaluated.

Where [8] appears, read: topical TPPO 1.5 mM with topical DMP 12.5 mM.
Setting [9] is: topical DMP 12.5 mM, vs vehicle.

Take `O=P(c1ccccc1)(c1ccccc1)c1ccccc1` [TPPO, triphenylphosphine oxide, reference compound]: the “effect on DMP-induced upregulation of Collagen 17A expression” value in the assay on Collagen 17A [1] (setting [8]) and in the assay on Collagen 17A [2] (TPPO 50 μM with DMP 100 nM) was “prevented the effect” throughout. For the same compound, the “effect on DMP-induced upregulation of Cytokeratin 15 expression” value with Cytokeratin 15 [3] (TPPO 50 μM with DMP 100 nM) is reported as “prevented the effect”. The “effect on DMP-induced upregulation of Ki67 expression” value in the assay with Ki67 [4] (setting [8]) is on record as “prevented the effect”.
Turning to `Cc1cnc(C)cn1` [DMP, 2,5-dimethylpyrazine], the “expression of Collagen 17A in the basal layers of the epidermis” value in the assay with Collagen 17A [1] (setting [9]) is “upregulate; also recorded: markedly increases”. Moreover, the “expression of PGC1α in the epidermis” value with PGC1α is “markedly increases”. Besides, the “expression of Collagen 17A in NHEKs” value is “markedly increases” in the assay with Collagen 17A [2] (DMP 12.5 nM) and “upregulate” in the assay on Collagen 17A [2] (DMP 100 nM). The “gene expression of KRT15 (RT-qPCR)” value with KRT15 is given as “markedly increases”. Besides, the “gene expression of COL17A1 (RT-qPCR)” value in the assay with COL17A1 is listed as “markedly increases”. For the same compound, the “expression of Cytokeratin 15 in NHEKs” value with Cytokeratin 15 [3] (DMP 12.5 nM) is “markedly increases”; in the assay with Cytokeratin 15 [3] (DMP 100 nM) it was “upregulate”. Further, in the assay on Sirtuin-1, the “expression of Sirtuin 1 in the epidermis” value was “markedly increases”. In the assay on Cytokeratin 15 [5], the “expression of Cytokeratin 15 in the basal layers of the epidermis” value is reported as “markedly increases”. Besides, the “expression of Ki67 in the epidermis” value in the assay on Ki67 [4] (setting [9]) is “upregulate”. In addition, the “number of pH3S10 positive (dividing and proliferating) NHEKs” value in assay [6] was “markedly increases”. The “expression of Lamin B1 in the epidermis” value in the assay with Lamin B1 is “markedly increases”. Further, the “number of Ki67 positive (proliferating) NHEKs” value in the assay on Ki67 [7] is “markedly increases”.
